What was measured:
PDE4B = target: T1, PDE4B (Homo sapiens, UniProt Q07343); experiment: PDE4 IMAP Assay; format: biochemical; settings: catalytic domain of PDE4B, fluorescence polarization
T1 construct: hexa-histidine (His6) (N); made in house
Summary of the method: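 His-tagged PDE4B catalytic domain was preincubated with compound for 10 min, then given fluorescent cAMP substrate for 2 h at room temperature. IMAP binding reagent was added for 10–30 min to capture the nucleotide monophosphate product, and fluorescence polarization was read.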

PDE4 = PDE4 Cellular CNG Assay; format: cell-based; settings: HEK293 cells stably expressing the CNG channel
Description: Compounds may be screened for functional potency in in vitro cellular assays for their ability to inhibit the activity of phosphodiesterase (PDE) enzymes. A commercial membrane potential assay, Molecular Device's membrane potential assay kit, was modified and utilized to measure the inhibitory activity of compounds on PDE isoforms in living cells. The cellular assay utilizes genetically engineered cyclic nucleotide-gated (CNG) channels as cyclic-AMP (cAMP) sensors. On binding cAMP these ion channels open, allowing the flow of cations across the plasma membrane. CNG channel activity can be monitored by measuring Ca^2+influx in cell populations. The influx of Ca causes a change in membrane potential that is measured by voltage sensitive dyes. PDE inhibitors prevent the degradation of cAMP that is generated by adenylyl cyclases that are activated upon stimulation of G protein-coupled receptors (GPCR) linked to the cAMP pathway. In brief, Molecular Device's membrane potential dye was added to HEK293 cells stably expressing the CNG channel and incubated for 2 hours at room temperature. Test compounds were then added to the cells and incubated for 15 minutes. A GPCR agonist was then added to the cells to stimulate the cAMP pathway and incubated for 45 minutes. Fluorescent measurements were then conducted with either the Molecular Devices Acquest or Analyst. PDE inhibitors will inhibit the degradation of cAMP and cause an increase in fluorescent signal. Roflumilast and Rolipram are the positive controls used in the assay.

recombinant human PDE4 = settings: reported value; read-out: IC50 with respect to inhibiting recombinant human PDE4; cited from earlier work

T1 sequence (Q07343 330-659 limits assumed, species assumed): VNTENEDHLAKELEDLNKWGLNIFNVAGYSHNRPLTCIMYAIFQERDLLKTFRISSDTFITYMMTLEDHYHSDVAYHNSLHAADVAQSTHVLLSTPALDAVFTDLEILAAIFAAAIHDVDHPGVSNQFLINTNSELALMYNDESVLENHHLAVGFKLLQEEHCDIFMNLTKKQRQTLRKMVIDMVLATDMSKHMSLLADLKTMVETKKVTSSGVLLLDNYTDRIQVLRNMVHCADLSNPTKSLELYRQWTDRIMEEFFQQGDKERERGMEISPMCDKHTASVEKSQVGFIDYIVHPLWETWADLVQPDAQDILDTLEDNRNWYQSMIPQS

| Compound | inhibition at 10 µM (PDE4B) | PDE4 Cellular CNG Assay Activity at 10 μM (PDE4) | IC50 (recombinant human PDE4) |
| --- | --- | --- | --- |
| COc1ccc(C2=NN(C(=O)c3cc(OC)c(OC)c(OC)c3)C(c3ccc(F)cc3)C2)cc1OC (stereo not shown) [Example 42, (3-(3,4-dimethoxyphenyl)-5-(4-fluorophenyl)-4,5-dihydro-1H-pyrazol-1-yl)(3,4,5-trimethoxyphenyl)methanone] | ≥ 50% | + (+ indicates Activity ≧50% at 10 μM) |  |
| COc1ccc(C2=NN(C(=O)c3cc(OC)c(OC)c(OC)c3)C(c3cccc([N+](=O)[O-])c3)C2)cc1OC (stereo not shown) [Example 77, (3-(3,4-dimethoxyphenyl)-5-(3-nitrophenyl)-4,5-dihydro-1H-pyrazol-1-yl)(3,4,5-trimethoxyphenyl)methanone] | ≥ 50% | + (+ indicates Activity ≧50% at 10 μM) |  |
| COc1ccc(C2=NN(C(=O)c3ccccc3Cl)C(c3ccc(F)cc3)C2)cc1OC (stereo not shown) [Example 31, (2-chlorophenyl)(3-(3,4-dimethoxyphenyl)-5-(4-fluorophenyl)-4,5-dihydro-1H-pyrazol-1-yl)methanone] | ≥ 50% | + (+ indicates Activity ≧50% at 10 μM) |  |
| COc1ccc(C2=NN(C(=O)c3cccs3)C(c3ccccc3F)C2)cc1OC (stereo not shown) [Example 40, (3-(3,4-dimethoxyphenyl)-5-(2-fluorophenyl)-4,5-dihydro-1H-pyrazol-1-yl)(thiophen-2-yl)methanone] | ≥ 50% | − (− indicates Activity <50% at 10 μM) |  |
| COc1ccc(C2CNC(=O)C2)cc1OC1CCCC1 (stereo not shown) [rolipram] |  |  | ~200 nM |
| COc1ccc(C2=NN(C(=O)CCC(=O)O)C(c3ccccc3)C2)cc1OC (stereo not shown) [Example 99, 4-(3-(3,4-dimethoxyphenyl)-5-phenyl-4,5-dihydro-1H-pyrazol-1-yl)-4-oxobutanoic acid] | < 50% |  |  |
| COc1ccc(C2=NN(C(=O)CCC(=O)O)C(c3ccccc3OC)C2)cc1OC (stereo not shown) [Example 98, 4-(3-(3,4-dimethoxyphenyl)-5-(2-methoxyphenyl)-4,5-dihydro-1H-pyrazol-1-yl)-4-oxobutanoic acid] | < 50% |  |  |
| COc1ccc(C2=NN(S(=O)(=O)c3ccccc3)C(c3ccccc3OC)C2)cc1OC (stereo not shown) [Example 61, 3-(3,4-dimethoxyphenyl)-5-(2-methoxyphenyl)-1-(phenylsulfonyl)-4,5-dihydro-1H-pyrazole] | < 50% |  |  |
| COc1ccc(C2=NN(S(=O)(=O)c3ccccc3)C(c3cccc([N+](=O)[O-])c3)C2)cc1OC (stereo not shown) [Example 53, 3-(3,4-dimethoxyphenyl)-5-(3-nitrophenyl)-1-(phenylsulfonyl)-4,5-dihydro-1H-pyrazole] | < 50% |  |  |
| COc1ccc(C2=NN(S(=O)(=O)c3ccc(C)cc3)C(c3ccc(N(C)C)cc3)C2)cc1OC (stereo not shown) [Example 85, 4-(3-(3,4-dimethoxyphenyl)-1-tosyl-4,5-dihydro-1H-pyrazol-5-yl)-N,N-dimethylaniline] | < 50% |  |  |
| COc1ccc(C2=NN(C(C)=O)C(c3ccccc3)C2)cc1OC (stereo not shown) [Example 106, 1-(3-(3,4-dimethoxyphenyl)-5-phenyl-4,5-dihydro-1H-pyrazol-1-yl)ethanone] | < 50% |  |  |
| COc1ccc(C2=NN(C(=O)CCCC(=O)O)C(c3ccc(C)cc3)C2)cc1OC (stereo not shown) [Example 96, 5-(3-(3,4-dimethoxyphenyl)-5-p-tolyl-4,5-dihydro-1H-pyrazol-1-yl)-5-oxopentanoic acid] | < 50% |  |  |
| COc1ccc(C2=NN(S(=O)(=O)c3ccc(C)cc3)C(c3ccccc3Cl)C2)cc1OC (stereo not shown) [Example 60, 5-(2-chlorophenyl)-3-(3,4-dimethoxyphenyl)-1-tosyl-4,5-dihydro-1H-pyrazole] | < 50% |  |  |
| COc1ccc(C2CC(c3ccc(OC)c(OC)c3)=NN2S(C)(=O)=O)cc1 (stereo not shown) [Example 14, 3-(3,4-dimethoxyphenyl)-5-(4-methoxyphenyl)-1-(methylsulfonyl)-4,5-dihydro-1H-pyrazole] | < 50% |  |  |
| COc1ccc(C2=NN(C(=O)CCC(=O)O)C(c3ccc(Cl)cc3)C2)cc1OC (stereo not shown) [Example 70, 4-(5-(4-chlorophenyl)-3-(3,4-dimethoxyphenyl)-4,5-dihydro-1H-pyrazol-1-yl)-4-oxobutanoic acid] | < 50% |  |  |
| COc1ccc(C2=NN(C(=O)CCC(=O)O)C(c3cc4cccc(C)c4nc3Cl)C2)cc1OC (stereo not shown) [Example 5, 4-(5-(2-chloro-8-methylquinolin-3-yl)-3-(3,4-dimethoxyphenyl)-4,5-dihydro-1H-pyrazol-1-yl)-4-oxobutanoic acid] | < 50% |  |  |
| COc1ccc(C2=NN(S(=O)(=O)c3ccc(C)cc3)C(c3ccc(C)cc3)C2)cc1OC (stereo not shown) [Example 57, 3-(3,4-dimethoxyphenyl)-5-p-tolyl-1-tosyl-4,5-dihydro-1H-pyrazole] | < 50% |  |  |
| COc1ccc(C2=NN(C(=O)c3ccc(Br)o3)C(c3ccc(N(C)C)cc3)C2)cc1OC (stereo not shown) [Example 81, (5-bromofuran-2-yl)(3-(3,4-dimethoxyphenyl)-5-(4-(dimethylamino)phenyl)-4,5-dihydro-1H-pyrazol-1-yl)methanone] | < 50% |  |  |
